This is an account of results in PMC9721440, “Investigation of the enantioselectivity of acetylcholinesterase and butyrylcholinesterase upon inhibition by tacrine-iminosugar heterodimers” (Journal of Enzyme Inhibition and Medicinal Chemistry, 2022).

The test system of assay [1] is SW1573 (non-small cell lung) cells. Nature of the assay: Antiproliferative SRB assay, SW1573. In kind it is cell-based. The conditions noted are these: Homo sapiens, 48 h exposure. From the text:
(§1) For the antiproliferative tests, we applied our implementation of the National Cancer Institute (NCI) screening protocol. As a model of human solid tumour cells, we selected the cell lines A549 (non-small cell lung), HBL-100 (breast), HeLa (cervix), SW1573 (non-small cell lung), T-47D (breast), and WiDr (colon). Cell seeding densities, based on the cell line doubling time, were 2500 (A549, HBL-100, HeLa and SW1573) or 5000 (T-47D and WiDr) cells/well. Compounds were initially dissolved in DMSO at 400 times the desired final maximum test concentration. […] Each compound was tested in triplicate at different dilutions ranging from 1 to 100 μM. Drug treatment began on day 1 after sowing. The drug incubation times were 48 h, after which the cells were precipitated with ice-cold TCA (50% w/v) and fixed for 60 min at 4 °C. Then the SRB test was performed. The optical density (OD) of each well was measured at 530 nm using a microplate absorbance reader (PowerWave XS, BioTek Instruments Inc.). Values were corrected for background OD of wells containing medium only[39].
(§2) Antiproliferative activity of our heterodimers was investigated for six cancer cell lines including A549, HBL-100, HeLa, SW1573, T-47D and WiDr.

In assay [2] the target is AChE from Electrophorus electricus (eeAChE) (Electrophorus electricus, UniProt O42275). Nature of the assay: biochemical. The conditions noted are these: for fold more potent eeAChE inhibitor than 10a: IC50 ratio vs 10a; for IC50: [S] = 121 µM, mean ± SD; for Enantioselectivity (eeAChE): IC50(Xa:AChE)/IC50(Xb:AChE). In kind it is biochemical. The source says:
(§3) A Thermo Scintific^TM Varioskan^TM LUX microplate reader and Greiner F-bottom 96-well plates were used. Cornish-Bowden plots (1/V vs. [I] and [S]/V vs. [I]) were used for the visualisation of the mode of inhibition.
(§4) A minor modification of the Ellman assay was used in order to measure the IC50 values.

Assay [3] addresses T1, BuChE from equine serum (eqBuChE) (Equus caballus, UniProt P81908).
T1 construct: BuChE from equine serum; from tissue; host or cells: equine serum
Nature of the assay: biochemical. It is filed as biochemical. The conditions noted are these: for IC50: [S] = 112 µM, mean ± SD; for Enantioselectivity (eqBuChE): IC50(Xa:BuChE)/IC50(Xb,BuChE).
Source text: as §3, §4

For assay [4], the system named is A549 (non-small cell lung) cells. Put plainly: Antiproliferative SRB assay, A549. In kind it is cell-based, human. The conditions noted are these: 48 h exposure.
Source text: as §1, §2

For assay [5], the system named is HBL-100 (breast) cells. Nature of the assay: Antiproliferative SRB assay, HBL-100. It is filed as cell-based. The conditions noted are these: Homo sapiens, 48 h exposure.
Source text: as §1, §2

Assay [6] has as its system WiDr (colon) cells. Put plainly: Antiproliferative SRB assay, WiDr. It is filed as cell-based. The conditions noted are these: Homo sapiens, 48 h exposure.
Source text: as §1, §2

The test system of assay [7] is HeLa (cervix) cells. Nature of the assay: Antiproliferative SRB assay, HeLa. It is filed as cell-based. The conditions noted are these: Homo sapiens, 48 h exposure.
Source text: as §1, §2

Assay [8] concerns T-47D (breast) cells. Nature of the assay: Antiproliferative SRB assay, T-47D. The conditions noted are these: Homo sapiens, T47D, 48 h exposure. In kind it is cell-based.
Source text: as §1, §2

Assay [9] deals with A549, HBL-100, HeLa, SW1573, T-47D and WiDr cells. Nature of the assay: Antiproliferative SRB assay, panel of six cancer cell lines. In kind it is cell-based. The conditions noted are these: Homo sapiens, 48 h exposure, whole panel, read-out: GI50 against panel of six human cancer cell lines.
Source text: as §1, §2

Assay [10] has as its system AChE. The conditions noted are these: cited from earlier work; for inhibition of AChE: 20 μM inhibitor concentration.

Entries after “also recorded” stand apart in the source; their conditions may differ. Where only a bound is given, the exact number is not on record here.

T1 sequence (P81908 whole entry): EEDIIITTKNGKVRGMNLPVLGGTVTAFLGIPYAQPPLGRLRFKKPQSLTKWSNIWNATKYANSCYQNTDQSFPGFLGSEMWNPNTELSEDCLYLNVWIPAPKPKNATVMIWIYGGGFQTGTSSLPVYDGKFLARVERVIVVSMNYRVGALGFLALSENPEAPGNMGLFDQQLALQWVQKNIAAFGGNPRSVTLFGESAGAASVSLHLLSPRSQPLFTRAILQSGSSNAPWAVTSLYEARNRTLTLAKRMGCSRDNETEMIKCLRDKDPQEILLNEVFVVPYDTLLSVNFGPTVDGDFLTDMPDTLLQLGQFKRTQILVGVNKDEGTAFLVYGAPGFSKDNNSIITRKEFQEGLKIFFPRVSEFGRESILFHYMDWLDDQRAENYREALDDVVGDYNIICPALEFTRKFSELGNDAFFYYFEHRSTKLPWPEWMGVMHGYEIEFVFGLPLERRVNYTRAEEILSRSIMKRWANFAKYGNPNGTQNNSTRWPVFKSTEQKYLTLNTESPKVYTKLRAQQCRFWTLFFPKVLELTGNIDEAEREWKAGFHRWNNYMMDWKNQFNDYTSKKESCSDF
Sequence of AChE from Electrophorus electricus (eeAChE) (O42275 24-633): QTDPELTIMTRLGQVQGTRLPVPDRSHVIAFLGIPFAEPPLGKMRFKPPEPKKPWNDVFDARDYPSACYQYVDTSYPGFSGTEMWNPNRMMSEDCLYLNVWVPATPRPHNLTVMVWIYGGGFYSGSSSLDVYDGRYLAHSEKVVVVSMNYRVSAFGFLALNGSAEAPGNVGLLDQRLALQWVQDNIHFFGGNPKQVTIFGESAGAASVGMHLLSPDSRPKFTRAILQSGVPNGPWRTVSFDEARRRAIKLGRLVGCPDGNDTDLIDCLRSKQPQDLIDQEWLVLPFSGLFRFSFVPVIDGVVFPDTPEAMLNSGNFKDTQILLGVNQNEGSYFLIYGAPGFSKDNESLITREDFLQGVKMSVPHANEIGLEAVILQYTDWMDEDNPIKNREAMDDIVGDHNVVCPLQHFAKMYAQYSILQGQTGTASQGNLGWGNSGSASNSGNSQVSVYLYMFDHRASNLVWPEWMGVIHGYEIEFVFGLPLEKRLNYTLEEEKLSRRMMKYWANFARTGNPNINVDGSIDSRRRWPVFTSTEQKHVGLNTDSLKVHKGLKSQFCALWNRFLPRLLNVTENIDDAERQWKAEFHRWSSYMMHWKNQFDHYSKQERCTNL

For `OCC1C(O)C(O)CN1Cc1cn(CCCCCCNc2c3c(nc4ccccc24)CCCC3)nn1` (centres unmarked) [Compound 11a], the 50% growth inhibitory concentration (GI50) was above 100 µM in assay [1]; 94 ± 9.6 µM in assay [4]; below 100 µM in [4] (Homo sapiens, A549, 48 h); above 100 µM in assay [5]; above 100 µM in assay [6]; 93 ± 12 µM in [7]. In addition, the GI50 in [8] was above 100 µM. Besides, in assay [2] (IC50 ratio vs 9a), the “fold more potent eeAChE inhibitor than 9a” value is given as “ca. 43 fold”. For the same compound, the “fold more potent eeAChE inhibitor than 10a” value in assay [2] is reported as 55 fold. Also, the IC50 in assay [2] came to 0.0097 ± 0.001 µM; in assay [3] it was 0.0091 ± 0.0003 µM. Further, the “fold stronger eqBuChE inhibitor than 9a” value in [3] (IC50 ratio vs 9a) was “roughly 11 fold”. For the same compound, in assay [3] (IC50 ratio vs 10a), the “fold stronger eqBuChE inhibitor than 10a” value came out at 20 fold.

With `OC[C@H]1[C@H](O)[C@@H](O)CN1Cc1cn(CCCNc2c3c(nc4ccccc24)CCCC3)nn1` [Compound 10b], in assay [2], the “Enantioselectivity (eeAChE)” value amounted to 3.5, the “fold more potent eeAChE inhibitor than 10a” value is recorded as “ca. 4 fold” and the concentration for half-maximal inhibition (IC50) turned out to be 0.15 ± 0.038 µM. Also, in assay [3], the “Enantioselectivity (eqBuChE)” value is on record as 0.79 and the IC50 was found to be 0.232 ± 0.028 µM. Moreover, the GI50 in assay [9] was above 100 µM.

`OC[C@H]1[C@H](O)[C@@H](O)CN1Cc1cn(CCCCCCNc2c3c(nc4ccccc24)CCCC3)nn1` [Compound 11b]: the GI50 in assay [1] was 97 ± 5.4 µM; in assay [4], 84 ± 28 µM; in assay [4] (Homo sapiens, A549, 48 h), below 100 µM; in assay [5] it was above 100 µM; in [6] it was above 100 µM; in assay [7], above 100 µM. In assay [8], this compound had a GI50 above 100 µM. Moreover, the “Mode of inhibition eeAChE” value in [2] (Cornish-Bowden plots) is recorded as “mixed; also recorded: (mixed)”. Moreover, the “Enantioselectivity (eeAChE)” value in assay [2] is given as 0.91. Also, in assay [2] (IC50 ratio vs 9b), the “fold more potent eeAChE inhibitor than 9b” value is “ca. 138 fold”. Besides, the “fold more potent eeAChE inhibitor than 10b” value in assay [2] (IC50 ratio vs 10b) is around 14 fold. Besides, the IC50 worked out at 0.0107 ± 0.0003 µM in assay [2] and 0.0081 ± 0.0001 µM in [3]. In addition, the Ki came out at 0.019 µM in [2] (mixed inhibition, Cornish-Bowden, read-out: Ki (competitive inhibition constant) eeAChE) and 0.01 µM in [3] (mixed inhibition, Cornish-Bowden, read-out: Ki (competitive inhibition constant) eqBuChE). Further, the “Mode of inhibition eqBuChE” value in assay [3] (Cornish-Bowden plots) is “mixed; also recorded: (mixed)”. The “Enantioselectivity (eqBuChE)” value in assay [3] was 1.1. Further, the “fold stronger eqBuChE inhibitor than 9b” value in assay [3] (IC50 ratio vs 9b) was 22 fold. In addition, the “fold stronger eqBuChE inhibitor than 10b” value in assay [3] (IC50 ratio vs 10b) is given as 29 fold.

In the case of `OC[C@@H]1[C@@H](O)[C@H](O)CN1Cc1cn(CCCNc2c3c(nc4ccccc24)CCCC3)nn1` [Compound 10a], in [2] (IC50 ratio vs 10b, less potent), the “fold less potent eeAChE inhibitor than 10b” value is “ca. 3.5 fold”. Moreover, the IC50 worked out at 0.53 ± 0.03 µM in assay [2] and 0.184 ± 0.016 µM in [3]. Besides, the GI50 in assay [9] was above 100 µM.

For `CNC(=O)Oc1ccc2c(c1)[C@]1(C)CCN(C)[C@@H]1N2C` [(-)-physostigmine (3a), (-)-physostigmine], the “fold stronger AChE inhibitor than (+)-physostigmine (3b)” value in assay [10] (depending on the enzyme source) is on record as 25- to 1000 fold.

For `COc1ccc2c3c1O[C@@H]1C[C@H](O)C=C[C@]31CCN(C)C2` [Compound 2b], in assay [10], the “inhibition of AChE” value was “ca. 4%”.

For the compound `OC[C@H]1[C@H](O)[C@@H](O)CN1Cc1cn(CCNc2c3c(nc4ccccc24)CCCC3)nn1` [Compound 9b], in assay [2], the “Enantioselectivity (eeAChE)” value is 0.28 and the 50% inhibitory concentration (IC50) is 1.48 ± 0.24 µM. For the same compound, in [3], the “Enantioselectivity (eqBuChE)” value stood at 0.54 and inhibition was half-maximal at 0.179 ± 0.025 µM (IC50). Besides, in [9], the GI50 is above 100 µM.

As for `OC[C@@H]1[C@@H](O)[C@H](O)CN1Cc1cn(CCNc2c3c(nc4ccccc24)CCCC3)nn1` [Compound 9a], the half-maximal inhibitory concentration (IC50) came to 0.42 ± 0.01 µM in assay [2] and 0.096 ± 0.005 µM in assay [3]. Moreover, in assay [9], the GI50 is above 100 µM.

Take `COc1ccc2c3c1O[C@H]1C[C@@H](O)C=C[C@@]31CCN(C)C2` [(-)-Galantamine (2a), (-)-Galantamine]: in assay [10], the “inhibition of AChE” value was “ca. 94%”.
